Test results taken from the NIST ThermoML archive (doi:10.1016/j.fluid.2015.03.038).
± gives the expanded uncertainty stated by the source.

Settings: Liquid

OCC(O)CO [glycerol]
Settings | vapor or sublimation pressure [kPa]
303.59 K, static (had to override TRC unc) | 4.15e-05 ± 7e-07
303.61 K, static (had to override TRC unc) | 4.19e-05 ± 7e-07
304.56 K, static (had to override TRC unc) | 4.68e-05 ± 7e-07
306.03 K, static (had to override TRC unc) | 5.56e-05 ± 8e-07
308.43 K, static (had to override TRC unc) | 7.28e-05 ± 9e-07
310.89 K, static (had to override TRC unc) | 9.63e-05 ± 1e-06
313.29 K, static (had to override TRC unc) | 0.000125 ± 1.1e-06
315.71 K, static (had to override TRC unc) | 0.0001634 ± 1.3e-06
318.12 K, static (had to override TRC unc) | 0.0002107 ± 1.5e-06
320.57 K, static (had to override TRC unc) | 0.0002701 ± 1.9e-06
322.95 K, static (had to override TRC unc) | 0.0003472 ± 2.1e-06
325.42 K, static (had to override TRC unc) | 0.0004428 ± 2.7e-06
327.82 K, static (had to override TRC unc) | 0.0005644 ± 3.4e-06
330.3 K, static (had to override TRC unc) | 0.0007165 ± 4.3e-06
332.72 K, static (had to override TRC unc) | 0.0009037 ± 5.4e-06
335.14 K, static (had to override TRC unc) | 0.001132 ± 5.7e-06
338.2 K, transpiration (had to override TRC unc) | 0.00151 ± 4e-05
338.25 K, static (had to override TRC unc) | 0.001502 ± 7.5e-06
340.68 K, static (had to override TRC unc) | 0.001872 ± 9.4e-06
341.7 K, transpiration (had to override TRC unc) | 0.0021 ± 6e-05
343.08 K, static (had to override TRC unc) | 0.00232 ± 1.2e-05
345.51 K, static (had to override TRC unc) | 0.002876 ± 1.4e-05
347.7 K, transpiration (had to override TRC unc) | 0.00355 ± 9e-05
347.91 K, static (had to override TRC unc) | 0.003529 ± 1.8e-05
350.34 K, static (had to override TRC unc) | 0.00436 ± 2.2e-05
351.5 K, transpiration (had to override TRC unc) | 0.00503 ± 0.00013
352.57 K, static (had to override TRC unc) | 0.00526 ± 7.9e-05
352.58 K, static (had to override TRC unc) | 0.00527 ± 7.4e-05
352.6 K, static (had to override TRC unc) | 0.00528 ± 7.4e-05
352.73 K, static (had to override TRC unc) | 0.005318 ± 2.7e-05
354.5 K, transpiration (had to override TRC unc) | 0.00631 ± 0.00018
354.98 K, static (had to override TRC unc) | 0.00639 ± 8.3e-05
354.99 K, static (had to override TRC unc) | 0.00641 ± 8.3e-05
355.18 K, static (had to override TRC unc) | 0.006488 ± 3.2e-05
357.39 K, static (had to override TRC unc) | 0.00777 ± 8.6e-05
357.42 K, static (had to override TRC unc) | 0.00782 ± 8.6e-05
357.5 K, transpiration (had to override TRC unc) | 0.00831 ± 0.00023
357.57 K, static (had to override TRC unc) | 0.007863 ± 3.9e-05
359.8 K, static (had to override TRC unc) | 0.00938 ± 9.4e-05
359.82 K, static (had to override TRC unc) | 0.00939 ± 9.4e-05
360.01 K, static (had to override TRC unc) | 0.009523 ± 4.8e-05
360.1 K, transpiration (had to override TRC unc) | 0.00989 ± 0.00027
362.42 K, static (had to override TRC unc) | 0.01146 ± 5.7e-05
362.63 K, static (had to override TRC unc) | 0.0117 ± 0.00011
362.66 K, static (had to override TRC unc) | 0.01179 ± 0.00011
363.2 K, transpiration (had to override TRC unc) | 0.01274 ± 0.00034
364.82 K, static (had to override TRC unc) | 0.0138 ± 0.00012
365.07 K, static (had to override TRC unc) | 0.0141 ± 0.00013
365.08 K, static (had to override TRC unc) | 0.01409 ± 0.00013
365.9 K, transpiration (had to override TRC unc) | 0.01529 ± 0.00041
367.45 K, static (had to override TRC unc) | 0.01686 ± 0.00013
367.48 K, static (had to override TRC unc) | 0.01696 ± 0.00014
369.89 K, static (had to override TRC unc) | 0.0202 ± 0.00014
369.91 K, static (had to override TRC unc) | 0.02016 ± 0.00014
